In patent publication US6632794B1, “Insulin-like growth factor agonist molecules” (Genentech, Inc., priority 1997, dated 2003):
Positions of bridges follow the written chain, without caps; N, C: chain ends. Residues, ends and D or L forms follow the SMILES beside them. No end group written: not given here.

Tests used:
[1] = biological target: T1, recombinant human (rh) IGFBP-1 (Homo sapiens, UniProt P08833); assay: ^125I-IGF-I competitive binding plate assay, IGFBP-1; conditions: FIG. 36
T1 sequence (P08833 26-259): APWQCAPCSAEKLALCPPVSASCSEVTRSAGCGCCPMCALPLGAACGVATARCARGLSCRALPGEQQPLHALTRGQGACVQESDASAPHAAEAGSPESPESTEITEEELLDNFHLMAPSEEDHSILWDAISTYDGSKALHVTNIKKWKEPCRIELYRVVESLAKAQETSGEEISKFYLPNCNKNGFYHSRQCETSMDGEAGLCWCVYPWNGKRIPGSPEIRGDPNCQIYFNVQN
Method: (§1) The mutant (Leu^24,Ala^31)hIGF-I was also tested for its ability to displace radio-labeled rhIGF-I off the IGFBPs in a competitive binding assay. This assay involves coating recombinant human (rh) IGFBP-1 or rhIGFBP-3 (160 ng/ml) onto 96-well plates overnight, blocking the plates for one hour with 0.5% BSA, adding rhIGF-I (250-0.08 ng/ml) or (Leu^24,Ala^31)hIGF-I for 1 hour, then adding 20,000 cpm of ^125I-IGF-I and incubating for 2 hours before washing and counting.
(§2) As an additional assay of peptide activity, several peptides were tested in an assay using ^125I-labeled IGF-I to measure inhibition of IGFBP binding, as described in Example 1 (Assay 3). Serial dilutions of peptide were added to an IGFBP-1 or an IGFBP-3 plate. Thereafter, ^125I-labeled IGF-I was added and the plates were incubated for 2 hours. The plates were then washed and counted to determine the amount of bound IGF-I.

IGFBP-3 [2] = biological target: T2, IGFBP-3 (Homo sapiens, UniProt P17936); assay: BIAcore competition assay, IGFBP-3 binding to immobilized IGF-I
T2 sequence (P17936 28-291): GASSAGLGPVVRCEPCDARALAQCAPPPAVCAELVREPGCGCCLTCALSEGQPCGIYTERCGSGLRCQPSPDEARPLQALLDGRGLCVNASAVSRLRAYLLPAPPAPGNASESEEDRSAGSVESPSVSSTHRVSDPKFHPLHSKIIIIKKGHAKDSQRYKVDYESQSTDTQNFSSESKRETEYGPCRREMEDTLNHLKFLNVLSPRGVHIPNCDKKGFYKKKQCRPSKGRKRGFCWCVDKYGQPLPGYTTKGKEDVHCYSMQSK
Method: A. BIAcore™ Competition Assay (for IGFBP-3 Binders)
IGF-I was immobilized on a dextran chip for inhibition assays using a BIAcore™ 2000 surface-plasmon-resonance device (BIAcore, Inc., Piscataway, N.J.) to measure free binding protein. […] Serial dilutions of peptide were mixed with a constant concentration (40 nM) of IGFBP-3. After incubation for >1 hour at room temperature, an aliquot of 20 μL was injected at a flow rate of 20 μL/min over the IGF-I chip. Following the injection, a response reading was taken to measure the relative amount of IGFBP-3 bound to the IGF-I.

IGFBP-3 [3] = biological target: T2, IGFBP-3; assay: ^125I-IGF-I competitive binding plate assay, IGFBP-3; conditions: FIG. 35
Method: as §1, §2

IGFBP-3 [4] = biological target: T2, IGFBP-3; assay: BIAcore competition assay, IGFBP-3 binding to immobilized IGF-II; conditions: 20 nM IGFBP-3; approximately 1500 RU immobilized IGF-II; read-out: IC50, inhibition of IGFBP-3 binding to IGF-II (BIAcore)
Method: D. BIAcore™ Competition Assay (for IGFBP-3 Binders)
IGF-II was immobilized on a dextran chip for inhibition assays using a BIAcore™ 2000 surface-plasmon-resonance device (BIAcore, Inc., Piscataway, N.J.) to measure free binding protein. IGF-II was biotinylated as described above, and injected over a chip to which streptavidin had been coupled (BIAcore, Inc.) to give approximately 1500 RU of immobilized IGF-II. […] Serial dilutions of peptide were mixed with a constant concentration (20 nM) of IGFBP-3. After incubation for ≧1 hour at room temperature, an aliquot of 20 μl was injected at a flow rate of 20 μl/min over the IGF-II chip. Following the injection, a response reading was taken to measure the relative amount of IGFBP-3 bound to the IGF-II.

[5] = system: endogenous IGFBPs present in human serum; assay: Displacement of ^125I-IGF-I from IGFBPs in human serum (FPLC-SEC); type: binding; conditions: human serum; peptide at 0.2 mM
Method: To determine if the IGF mutant could displace IGF-I from endogenous IGFBPs present in human serum, the following experiment was performed. Radiolabeled rhIGF-I (^125-IGF-I) was incubated with normal human serum samples at a concentration of 33 ng/ml for 16 hr at 4° C. to allow for the formation of […] complexes. […] The samples (n=3) were then analyzed by FPLC size-exclusion chromatography (FPLC-SEC) to determine the relative size and amounts of the ^125I-IGF-I:IGFBP complexes.
Data are expressed as cpm per fraction (n=1).
This Example tests an IGFBP-3-specific peptide, BP15, for its ability to block the binding of ^125I-IGF-I in human serum. Human serum was incubated with ^125I-IGF-I±the peptide and the amount of tracer bound to IGFBPs via size-exclusion chromatography was measured.

IGFBP-3 [6] = biological target: T2, IGFBP-3; assay: KIRA assay of IGF-I activity with IGF-I plus IGFBP-3 and peptide; type: cell-based
Method: C. In Vitro Activation (KIRA)
The ability of several synthetic peptides to block IGF-I binding to IGFBPs and release functional IGF-I was tested in a KIRA assay of IGF-I activity, as described in Example 1. Cells were treated with IGF-I alone, peptide alone, peptide plus IGF-I, IGF-I plus binding protein (IGFBP-1 or IGFBP-3), or IGF-I plus binding protein (IGFBP-1 or IGFBP-3) and peptide.
It is believed that this would drop to 30 uM with a 1:1 ratio.

IGFBP-1 = biological target: T3, IGFBP-1 (Homo sapiens, UniProt P08833); assay: BIAcore competition assay, IGFBP-1 binding to IGF-I; conditions: for IGF-I Inhibition IC50 (114)/IC50 (mut) / IGF-I Inhibition IC50 (116)/IC50 (mut): g3 bp1-01 selectants by BIAcore, higher = better; for IGF-I Inhibition IC50 (114)/IC50 (mut): relative to bp1-14; for IGF-I Inhibition IC50 (116)/IC50 (mut): relative to bp1-16
T3 construct: biotin (chemical label, EZ-LINK NHS-SS-Biotin)
T3 sequence (P08833 26-259): T1 sequence (P08833 26-259)
Method: Two series of synthetic peptide variants were generated to determine which side chains of the bp1-01 peptide might contribute directly to binding IGFBP-1. In the first series an alanine-scanning approach (Cunningham and Wells, Science, 244: 1081-1085 (1989)) was used to remove that portion of each side chain beyond the beta carbon. The contribution of these atoms to the free energy of binding of the peptide to IGFBP-1 was then assessed by measuring the potency (IC50) of the variant for inhibiting IGFBP-1 binding to IGF-I or IGF-II in a BIAcore™competition assay, analogous to that described for IGFBP-3 (see Example 7).
Substitutions at the N-terminus or C-terminus yielded affinity improvements. […] All of these peptides had similar or improved apparent affinity for IGFBP-1 as compared with bp1-01 and bp1-02 and are thus expected to increase the availability of IGF-I in an in vitro cell culture assay.

[7] = 40 nM IGFBP-3, 400 to 800 RU immobilized IGF-I, read-out: BIAcore Assay IC50, inhibition of IGF-I binding to IGFBP-3

Q: `CSCC[C@@H]1NC(=O)[C@H](Cc2c[nH]c3ccccc23)NC(=O)[C@@H]2CCCN2C(=O)CNC(=O)[C@H](CC(=O)O)NC(=O)[C@H](C)NC(=O)[C@@H](NC(=O)[C@@H](NC(=O)CNC(=O)[C@H](CCSC)NC(=O)[C@@H](N)CC(=O)O)C(C)C)CSSC[C@@H](C(=O)N[C@@H](CCC(=O)O)C(=O)N[C@@H](Cc2c[nH]c3ccccc23)C(=O)N[C@H](C(=O)N[C@@H](CCC(=O)O)C(=O)O)[C@@H](C)O)NC(=O)[C@H](C(C)C)NC(=O)[C@H](Cc2ccc(O)cc2)NC1=O` [BP3-02-ox] (H-DMGVCADGPWMYVCEWTE-OH; disulfide 5-14; N-terminus and C-terminus assumed) was tested. Which “inhibition of ^125I-IGF-I binding to an IGFBP-1 coated plate” value [1] did it give?
A: did not inhibit

Q: And the IC50 (IGFBP-3 [2]; [7])?
A: 12 µM

Q: And the “inhibition of ^125I-IGF-I binding to an IGFBP-3 plate” value (IGFBP-3 [3])?
A: inhibition

Q: How did the IC50 (IGFBP-3 [2]; [7]) turn out when `CC[C@H](C)[C@@H]1NC(=O)[C@H](Cc2ccc(O)cc2)NC(=O)CNC(=O)[C@H](CCC(N)=O)NC(=O)[C@H](CC(=O)O)NC(=O)[C@H](Cc2c[nH]cn2)NC(=O)[C@H](CCCNC(=N)N)NC(=O)[C@H](CC(=O)O)NC(=O)[C@H](Cc2c[nH]c3ccccc23)NC(=O)[C@@H](NC(=O)[C@@H](NC(=O)[C@H](CCC(=O)O)NC(=O)[C@H](Cc2c[nH]c3ccccc23)NC(=O)[C@H](C)NC(=O)[C@@H](N)C(C)C)C(C)C)CSSC[C@@H](C(=O)N[C@H](C(=O)N[C@H](C(=O)N[C@@H](CC(=O)O)C(=O)N[C@@H](CO)C(=O)O)[C@@H](C)O)[C@@H](C)O)NC1=O` [BP3-4D3.11] (H-VAWEVCWDRHDQGYICTTDS-OH; disulfide 6-16; N-terminus and C-terminus assumed) was run?
A: < 10 µM

Q: What about the IC50 (IGFBP-3 [4]) of the same compound?
A: 1 µM

Q: Which “decrease in ^125I-IGF-I associated with the 150-KD IGF/IGFBP-3/ALS complex” value [5] does the source give for `CC(C)C[C@@H]1NC(=O)[C@H](Cc2ccc(O)cc2)NC(=O)[C@H](Cc2c[nH]c3ccccc23)NC(=O)[C@H](CCC(=O)O)NC(=O)[C@H](C)NC(=O)[C@H](C(C)C)NC(=O)[C@@H]2CCCN2C(=O)[C@H](Cc2c[nH]c3ccccc23)NC(=O)[C@@H](NC(=O)[C@@H](NC(=O)[C@H](CCC(=O)O)NC(=O)[C@H](CCC(=O)O)NC(=O)[C@@H](N)CO)C(C)C)CSSC[C@@H](C(=O)N[C@@H](CC(N)=O)C(=O)O)NC1=O` [BP15] (H-SEEVCWPVAEWYLCN-OH; disulfide 5-14; N-terminus and C-terminus assumed) here?
A: ~42%

Q: And the “increase in the amount of free ^125I-IGF-I” value [5]?
A: 59%

Q: What about the IC50 (IGFBP-3 [2]; [7]) of the same compound?
A: 0.75 µM

Q: What about the IC50 (IGFBP-3 [2]; bp3-01-ox variants by BIAcore competition assay, read-out: IGF-I Inhibition IC50) of the same compound?
A: 0.72 µM

Q: And the “IGF-I Inhibition IC50 (mut)/IC50 (wt)” value (IGFBP-3 [2]; bp3-01-ox variants by BIAcore, wt = bp3-01-ox)?
A: 0.36

Q: And the IC50 (IGFBP-3 [4])?
A: 0.78 µM

Q: And the “IC50 believed to result with a 1:1 ratio (KIRA)” value (IGFBP-3 [6]; IGFBP-3:IGF-1 1:1 ratio, not tested)?
A: 30 µM

Q: What about the IC50 (IGFBP-3 [6]; IGFBP-3:IGF-1 at a 3:1 ratio, read-out: IC50 for blocking of IGFBP-3 (activation of the KIRA assay)) of the same compound?
A: 95 µM

Q: With `CC(C)C[C@@H]1NC(=O)[C@H](Cc2ccc(O)cc2)NC(=O)[C@H](Cc2c[nH]c3ccccc23)NC(=O)[C@H](CCC(=O)O)NC(=O)[C@H](C)NC(=O)[C@H](C(C)C)NC(=O)[C@@H]2CCCN2C(=O)[C@H](Cc2c[nH]c3ccccc23)NC(=O)[C@@H](NC(=O)[C@@H](N)C(C)C)CSSC[C@@H](C(=O)N[C@@H](CC(N)=O)C(=O)O)NC1=O` [BP17] (H-VCWPVAEWYLCN-OH; disulfide 2-11; N-terminus and C-terminus assumed) as the compound, how does the IC50 (IGFBP-3 [2]; [7]) read?
A: 9 µM

Q: And the IC50 (IGFBP-3 [4])?
A: 5.1 µM

Q: With `CC(C)C[C@@H]1NC(=O)[C@H](Cc2c[nH]c3ccccc23)NC(=O)[C@H](CCC(N)=O)NC(=O)[C@H](CC(C)C)NC(=O)[C@@H]2CCCN2C(=O)CNC(=O)[C@H](C)NC(=O)[C@H](CCCNC(=N)N)NC(=O)[C@@H](NC(=O)[C@@H](NC(=O)[C@H](CCCNC(=N)N)NC(=O)[C@H](C)NC(=O)[C@@H](N)CCC(=O)O)C(C)C)CSSC[C@@H](C(=O)N[C@@H](CCC(=O)O)C(=O)N[C@@H](CCCCN)C(=O)N[C@@H](Cc2ccc(O)cc2)C(=O)N[C@@H](Cc2ccccc2)C(N)=O)NC1=O` [bp1-20] (H-EARVCRAGPLQWLCEKYF-NH2; disulfide 5-14) as the compound, how does the “IGF-I Inhibition IC50 (114)/IC50 (mut)” value (IGFBP-1) read?
A: 2.6

Q: And the “IGF-I Inhibition IC50 (116)/IC50 (mut)” value (IGFBP-1)?
A: 12

Q: Which “affinity improvement compared with bp1-14 (18-mer)” value (IGFBP-1; IGFBP-1) does the source give for `CC(C)C[C@@H]1NC(=O)[C@H](Cc2c[nH]c3ccccc23)NC(=O)[C@H](CCC(N)=O)NC(=O)[C@H](CC(C)C)NC(=O)[C@@H]2CCCN2C(=O)CNC(=O)[C@H](C)NC(=O)[C@H](CCCNC(=N)N)NC(=O)[C@@H](NC(=O)CNC(=O)[C@@H](NC(=O)[C@H](CCC(=O)O)NC(=O)[C@@H](N)CO)C(C)C)CSSC[C@@H](C(=O)N[C@@H](CCC(=O)O)C(=O)N[C@@H](CCCCN)C(=O)N[C@@H](Cc2ccc(O)cc2)C(=O)N[C@@H](Cc2ccccc2)C(=O)N[C@@H](CO)C(=O)N[C@H](C(=O)N[C@@H](Cc2ccc(O)cc2)C(N)=O)[C@@H](C)O)NC1=O` [bp1-21A] (H-SEVGCRAGPLQWLCEKYFSTY-NH2; disulfide 5-14) here?
A: 3 fold

Q: What about the “IGF-I Inhibition IC50 (114)/IC50 (mut)” value (IGFBP-1) of the same compound?
A: 3.2

Q: And the “IGF-I Inhibition IC50 (116)/IC50 (mut)” value (IGFBP-1)?
A: 15

Q: “CRAGPLQWLCEKYFSTY-nh2 (CRAGPLQWLCEKYFSTY-NH2; disulfide 1-10) [bp1-21B]” was tested. Which “affinity improvement compared with bp1-16” value (IGFBP-1; IGFBP-1) did it give?
A: ~3 fold
